Experimental data: ChEMBL document CHEMBL5728262, “Oxadiazolones as transient receptor potential channel inhibitors” (2021)

Target: Transient receptor potential cation channel subfamily A member 1 (Homo sapiens, UniProt O75762)
Assay: FLIPR Assay: The IC50 (effective concentration) of compounds on the human and rat TRPA1 channels were determined using a FLIPR Tetra instrument. CHO cells expressing TRPA1 were plated into 384-well plates, incubated overnight at 37° C., and loaded with BD calcium indicator dye for 1 hr at 37° C. followed by 15 minutes at room temperature. The assay buffer was Hank's Balanced Salt Solution (HBSS) containing 20 mM HEPES (pH readjusted to 7.4) along with 0.02% BSA.Following dye load and plate cool down, compounds were added to the cells using FLIPR Tetra. Plates were then incubated with compounds for 20 minutes at room temperature prior to adding agonist. […] Fixing the Hill coefficient will generally reduce variability of the IC50 determination. The IC50 results were individually examined to make sure the MIN and MAX points were set correctly prior to validation of the results.

Sequence of Transient receptor potential cation channel subfamily A member 1 (O75762 whole entry): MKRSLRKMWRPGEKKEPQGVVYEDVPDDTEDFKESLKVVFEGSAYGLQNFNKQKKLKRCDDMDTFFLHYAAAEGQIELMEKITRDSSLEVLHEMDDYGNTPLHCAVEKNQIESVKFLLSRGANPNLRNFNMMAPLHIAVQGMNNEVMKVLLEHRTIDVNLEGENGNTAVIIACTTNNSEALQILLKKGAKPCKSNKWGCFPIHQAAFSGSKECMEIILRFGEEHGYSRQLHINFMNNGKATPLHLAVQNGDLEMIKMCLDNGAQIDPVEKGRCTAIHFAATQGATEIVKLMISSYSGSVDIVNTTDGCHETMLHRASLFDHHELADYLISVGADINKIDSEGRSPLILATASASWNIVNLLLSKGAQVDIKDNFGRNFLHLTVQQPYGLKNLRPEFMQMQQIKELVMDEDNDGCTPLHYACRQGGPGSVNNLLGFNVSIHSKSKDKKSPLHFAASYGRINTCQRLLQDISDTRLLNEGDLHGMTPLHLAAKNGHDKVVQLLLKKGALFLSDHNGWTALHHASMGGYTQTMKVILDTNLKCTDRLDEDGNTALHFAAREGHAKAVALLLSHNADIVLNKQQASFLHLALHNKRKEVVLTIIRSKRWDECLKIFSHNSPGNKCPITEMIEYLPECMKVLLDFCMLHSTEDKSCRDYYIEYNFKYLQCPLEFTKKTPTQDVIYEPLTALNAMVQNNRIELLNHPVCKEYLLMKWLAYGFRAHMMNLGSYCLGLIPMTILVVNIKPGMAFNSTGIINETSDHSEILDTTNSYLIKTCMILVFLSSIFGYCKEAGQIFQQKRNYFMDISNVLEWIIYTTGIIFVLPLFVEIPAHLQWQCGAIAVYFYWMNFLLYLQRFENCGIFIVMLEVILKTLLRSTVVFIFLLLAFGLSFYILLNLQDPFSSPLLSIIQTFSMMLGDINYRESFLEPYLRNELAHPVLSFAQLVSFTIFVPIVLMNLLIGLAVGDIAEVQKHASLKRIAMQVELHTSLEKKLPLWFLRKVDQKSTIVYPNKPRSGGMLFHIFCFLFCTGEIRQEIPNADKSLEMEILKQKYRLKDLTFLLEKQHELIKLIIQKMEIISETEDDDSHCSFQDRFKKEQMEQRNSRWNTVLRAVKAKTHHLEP

IC50: 100 nM
SMILES: Cn1nc(C#N)c2ncn(Cc3nn(CCc4ccc(Cl)cc4)c(=O)o3)c(=O)c21
